# In patent US20230322724A1, “HETEROCYCLIC COMPOUNDS AS CBP/EP300 BROMODOMAIN INHIBITORS” (AURIGENE ONCOLOGY LIMITED, priority 2020, published 2023):
# Target: T1, recombinant CREBBP bromodomain (Homo sapiens, UniProt Q92793)
# T1 construct: recombinant CREBBP bromodomain obtained from BPS Bioscience, USA; purchased BPS Bioscience, USA
# Assay: CBP TR-FRET displacement assay
# Assay type: binding
# Details: compound at 10 μM
# Experimental: The potency of compounds to inhibit CREBBP enzyme was tested in a TR-FRET displacement assay using recombinant CREBBP bromodomain obtained from BPS Bioscience, USA. The assay buffer was 50 mM HEPES (pH 7.5), 50 mM NaCl, 0.008% Brij 35, 0.01% BSA, 1 mM TCEP. 50 nM of CREBBP & 500 nM of Biotinylated ligand was incubated at room temperature for 30 minutes, the reaction was initiated by adding pre-incubated enzyme ligand mixture to the test compounds. After 60 min incubation, the reaction was stopped by the addition of stop mix containing 1 nM of LANCE Europium-anti-6xHis antibody (Perkin Elmer, USA) and 40 nM of Sure Light Allophycocyanin-Streptavidin (Perkin Elmer, USA). Fluorescence emission of the samples at 665 and 615 nm were measured at an excitation of 340 nm and their ratio was plotted against the compound concentrations to generate dose-response curve. The percent inhibition of the test compounds is calculated using the ratio of enzyme activity controls.
# elected compounds of the present invention were screened in the above-mentioned assay procedures and IC50 values were determined by fitting the dose-response data to sigmoidal curve fitting equation using Graph pad prism software V7.
# T1 sequence (Q92793 1085-1192 limits assumed): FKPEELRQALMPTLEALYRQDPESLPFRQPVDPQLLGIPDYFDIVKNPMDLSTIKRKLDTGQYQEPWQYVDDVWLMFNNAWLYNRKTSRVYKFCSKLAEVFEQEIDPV
row,Compound,inhibition at 10 µM [%]
1,CCc1cc2c(N3CCN(C)c4cc(-c5cnn(C)c5)c(C#N)cc43)cccc2[nH]c1=O [Example 50],90
2,COc1cc(N2CCN(C)c3ccc(S(C)(=N)=O)cc32)c2cc(C)c(=O)n(C)c2c1 (stereo not shown) [Example 101],27
3,Cc1cc2c(N3CCc4ccc(-c5cnn(C)c5)cc4C3)cccc2n(C)c1=O [Example 190],52
4,COc1cc2c(cc1-c1cnn(C)c1)CCCN2c1cccc2[nH]c(=O)c(C)cc12 [Example 188],25

# The next lines start with the values.
row,inhibition at 10 µM [%],Compound
1,25,"Cc1cc2c(N3CCN(C4CCOCC4)c4ccccc43)cccc2n(C)c1=O [Example 78, 1,3-Dimethyl-5-(4-(tetrahydro-2H-pyran-4-yl)-3,4-dihydroquinoxalin-1(2H)-yl)quinolin-2(1H)-one]"
2,46,COc1cc(N2CCN(C)c3cc(N4CCCCC4=O)ncc32)c2cc(C)c(=O)n(C)c2c1 [Example 126]
3,47,"CNC(=O)c1ccc(-c2cc3c(cc2C(F)F)N(c2cc(OC)cc4c2cc(C)c(=O)n4C)CCC3)cn1 [Example 192, 5-(7-(Difluoromethyl)-7′-methoxy-1′,3′-dimethyl-2′-oxo-1′,2′,3,4-tetrahydro-2H-[1,5′-biquinolin]-6-yl)-N-methylpicolinamide]"

# Same assay, conditions: compound at 10 μM, 10 µM
row,% Inhibition (10 μM) [%],Compound
1,100,"Cc1cc2c(N3CCN(C)c4cc(-c5cnn(C)c5)c(C#N)cc43)cc(OCC3CCCN(C)C3)cc2n(C)c1=O (single isomer, unassigned) [Example 248, 4-(1,3-Dimethyl-7-((1-methylpiperidin-3-yl)methoxy)-2-oxo-1,2-dihydroquinolin-5-yl)-1-methyl-7-(1-methyl-1H-pyrazol-4-yl)-1,2,3,4-tetrahydroquinoxaline-6-carbonitrile]"

# Same assay, conditions: dose-response, read-out: IC50 (group A, B, C)
row,Compound,IC50 [µM]
1,COc1cc(N2CCc3c(c(-c4cnn(C)c4)nn3C)C2)c2cc(C)c(=O)n(C)c2c1 [Example 191],> 0.01
2,COc1cc(N2CCN(C)c3cc(-c4cnn(C)c4)c(F)cc32)c2cc(C)c(=O)n(C)c2c1 [Example 30],< 0.05
3,"CC(=O)N1CCN(CCOc2cc(N3CCN(C)c4cc(-c5cnn(C)c5)c(C#N)cc43)c3cc(C)c(=O)n(C)c3c2)CC1 [Example 61, 4-(7-(2-(4-Acetylpiperazin-1-yl)ethoxy)-1,3-dimethyl-2-oxo-1,2-dihydroquinolin-5-yl)-1-methyl-7-(1-methyl-1H-pyrazol-4-yl)-1,2,3,4-tetrahydroquinoxaline-6-carbonitrile]",< 0.05
4,CNC(=O)N1CCN(c2cc3c(cc2C#N)N(c2cc(OC)cc4c2cc(C)c(=O)n4C)CCN3C)CC1 [Example 28],< 0.05
5,COc1cc(N2CCN(C)c3cc(C4=CCCC4)c(S(=O)(=O)NC(C)=O)cc32)c2cc(C)c(=O)n(C)c2c1 [Example 110],< 0.05
6,COc1cc(N2CCN(C)c3ccc([S+](C)[O-])cc32)c2cc(C)c(=O)n(C)c2c1 (stereo not shown) [Example 99],0.051 to 0.1
7,Cc1cc2c(N3CCN(C)c4cc(-c5cnn(C)c5)c(C#N)cc43)cncc2n(C)c1=O [Example 53],< 0.05
8,COc1cc(N2CCN(C)c3cc(N4CC(C)NC(C)C4)c(C#N)cc32)c2cc(C)c(=O)n(C)c2c1 (stereo not shown) [Example 24],> 0.01
9,CNC(=O)c1ccc2c(c1)N(c1cc(OC)cc3c1cc(C)c(=O)n3C)CCN2C [Example 81],> 0.01
10,"Cc1cc2c(N3CCN(C)c4cc(-c5cnn(C)c5)ncc43)cc(O)cc2n(C)c1=O [Example 145, 7-Hydroxy-1,3-dimethyl-5-(1-methyl-7-(1-methyl-1H-pyrazol-4-yl)-2,3-dihydropyrido[3,4-b]pyrazin-4(1H)-yl)quinolin-2(1H)-one]",0.051 to 0.1
11,CCN1CCN(c2cc(OC)cc3c2cc(C)c(=O)n3C)c2cc(C#N)c(N3CCN(C(C)=O)CC3)cc21 [Example 32],< 0.05
12,"COc1cc(N2CCN(C)c3ccc(S(=O)(=O)N(C)C)cc32)c2cc(C)c(=O)n(C)c2c1 [Example 93, 4-(7-Methoxy-1,3-dimethyl-2-oxo-1,2-dihydroquinolin-5-yl)-N,N,1-trimethyl-1,2,3,4-tetrahydroquinoxaline-6-sulfonamide]",0.051 to 0.1
13,COc1cc(N2CCN(C)c3cc(C(F)(F)F)ncc32)c2cc(C)c(=O)n(C)c2c1 [Example 124],0.051 to 0.1
14,"CCS(=O)(=O)N1CCN(c2cccc3c2cc(C)c(=O)n3C)c2ccc(-c3cnn(C)c3)cc21 [Example 74, 5-(4-(Ethylsulfonyl)-6-(1-methyl-1H-pyrazol-4-yl)-3,4-dihydroquinoxalin-1(2H)-yl)-1,3-dimethylquinolin-2(1H)-one]",> 0.01
15,"COc1cc(N2CCN(C)c3ccc(-c4nn[nH]n4)cc32)c2cc(C)c(=O)n(C)c2c1 [Example 84, 7-Methoxy-1,3-dimethyl-5-(4-methyl-7-(2H-tetrazol-5-yl)-3,4-dihydroquinoxalin-1(2H)-yl)quinolin-2(1H)-one]",< 0.05
16,Cc1cc2c(N3CCN(C)c4cc(-c5cnn(C)c5)c(C#N)cc43)cc(OCc3ncco3)cc2n(C)c1=O [Example 41],< 0.05
17,"COc1cc(N2CCN(C)c3ccc([S+](C)[O-])cc32)c2cc(C)c(=O)n(C)c2c1 (single isomer, unassigned) [Example 250]",> 0.01
18,"Cc1cc2c(N3CCN(C)c4ccc(C#N)cc43)cccc2[nH]c1=O [Example 115, 1-Methyl-4-(3-methyl-2-oxo-1,2-dihydroquinolin-5-yl)-1,2,3,4-tetrahydroquinoxaline-6-carbonitrile]",< 0.05
19,Cc1cc2c(N3CCN(C)c4cc(-c5cnn(C)c5)c(F)cc43)cc(N(C)C)cc2n(C)c1=O [Example 45],< 0.05
20,"Cc1cc2c(N3CCN(C)c4cc(-c5cnn(C)c5)ncc43)cc(C#CCO)cc2n(C)c1=O [Example 155, 7-(3-Hydroxyprop-1-yn-1-yl)-1,3-dimethyl-5-(1-methyl-7-(1-methyl-1H-pyrazol-4-yl)-2,3-dihydropyrido[3,4-b]pyrazin-4(1H)-yl)quinolin-2(1H)-one]",0.051 to 0.1

# Next, values leading:
row,IC50 [µM],Compound
1,> 0.01,"Cc1cc2c(N3CCN(C)c4cc(-c5cnn(C)c5)[n+]([O-])cc43)cc(N3CCOCC3)cc2n(C)c1=O [Example 160, 4-(1,3-Dimethyl-7-morpholino-2-oxo-1,2-dihydroquinolin-5-yl)-1-methyl-7-(1-methyl-1H-pyrazol-4-yl)-1,2,3,4-tetrahydropyrido[3,4-b]pyrazine 6-oxide]"
2,< 0.05,Cc1cc2c(N3CCCc4cc(-c5cnn(C)c5)ncc43)cc(N3C[C@H]4C[C@@H]3CO4)cc2n(C)c1=O [Example 168]
3,> 0.01,COc1cc(N2CCCc3ccc(C(F)F)cc32)c2cc(C)c(=O)n(C)c2c1 [Example 175]
4,0.051 to 0.1,Cc1cc2c(N3CCCc4cc(-c5cnn(C)c5)c(C(F)F)cc43)cc(N3CC[C@@H](O)C3)cc2n(C)c1=O [Example 177]
5,> 0.01,COc1cc(N2CCCc3ccc(C#N)cc32)c2cc(C)c(=O)n(C)c2c1 [Example 184]
6,< 0.05,CC(=O)NS(=O)(=O)c1ccc2c(c1)N(c1cc(N3CC[C@@H](O)C3)cc3c1cc(C)c(=O)n3C)CCN2C [Example 105]
7,0.051 to 0.1,Cc1cc2c(N3CCN(C)c4cc(S(=O)(=O)C(C)C)ncc43)cc(N3CCOCC3)cc2n(C)c1=O [Example 141]
8,< 0.05,Cc1cc2c(N3CCCc4cc(C5CCOC5)c(C(F)F)cc43)nc(N3CC[C@@H](O)C3)cc2n(C)c1=O (stereo partly shown) [Example 228]
9,< 0.05,"Cc1cc2c(N3CCCc4cc(-c5cccn(C)c5=O)c(C(F)F)cc43)nc(C3CCOCC3)cc2n(C)c1=O [Example 235, 5-(7-(difluoromethyl)-6-(1-methyl-2-oxo-1,2-dihydropyridin-3-yl)-3,4-dihydroquinolin-1(2H)-yl)-1,3-dimethyl-7-(tetrahydro-2H-pyran-4-yl)-1,6-naphthyridin-2(1H)-one]"
10,< 0.05,Cc1cc2c(N3CCCc4cc(-c5cnn(C)c5)c(C(F)F)cc43)nc(N3CCC(C)(N)CC3)cc2n(C)c1=O [Example 222]
11,< 0.05,"Cc1cc2c(N3CCN(C)c4nc(-c5cnn(C)c5)ncc43)cc(N3CCOCC3)cc2n(C)c1=O [Example 76, 1,3-Dimethyl-5-(8-methyl-2-(1-methyl-1H-pyrazol-4-yl)-7,8-dihydropteridin-5(6H)-yl)-7-morpholinoquinolin-2(1H)-one]"
12,< 0.05,CNC(=O)C1CCN(c2cc3c(cc2F)N(c2cc(N4CCOCC4)cc4c2cc(C)c(=O)n4C)CCN3C)CC1 [Example 49]
13,< 0.05,COc1cc(N2CCN(C)c3cc(N4CCC(N(C)C)CC4)c(C#N)cc32)c2cc(C)c(=O)n(C)c2c1 [Example 22]
14,< 0.05,Cc1cc2c(N3CCCc4cc(N5CC(C)NC(C)C5)c(C(F)F)cc43)nc(C3CCOCC3)cc2n(C)c1=O (stereo not shown) [Example 236]
15,< 0.05,Cc1cc2c(N3CCCc4cc(N5CCC(C)(N)CC5)c(C(F)F)cc43)nc(C3CCOCC3)cc2n(C)c1=O [Example 237]
16,< 0.05,"COc1cc(N2CCN(C)c3cc(N4CCC(C(=O)NCCO)CC4)c(C#N)cc32)c2cc(C)c(=O)n(C)c2c1 [Example 59, 1-(7-Cyano-1-(7-methoxy-1,3-dimethyl-2-oxo-1,2-dihydroquinolin-5-yl)-4-methyl-1,2,3,4-tetrahydroquinoxalin-6-yl)-N-(2-hydroxyethyl)piperidine-4-carboxamide]"
17,0.051 to 0.1,Cc1cc2c(N3CC(C)N(C)c4cc(-c5cnn(C)c5)ncc43)cc(N3CCOCC3)cc2n(C)c1=O (stereo not shown) [Example 144]
18,> 0.01,Cc1cc2c(N3CCN(C)c4cc(-c5cnn(C)c5)ncc43)nc(N3C4CCC3COC4)cc2n(C)c1=O [Example 221]
